Assay results reported in PubChem BioAssay (NCI).
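All cell lines were grown in 96-well plates and treated with compound for 48 hours. Definition used: TGI = concentration required for complete inhibition of growth.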

Assays:
Assay in all cases: DTP human tumour cell line panel, 48 h
SNB-75 CNS = tested on: SNB-75 CNS
HT29 colon = tested on: HT29 colon
MOLT-4 leukemia = tested on: MOLT-4 leukemia
OVCAR-3 ovarian = tested on: OVCAR-3 ovarian
NCI-H522 lung = tested on: NCI-H522 lung
LXFL 529 NSCLC = tested on: LXFL 529 NSCLC
ACHN renal = tested on: ACHN renal
NCI-H460 lung = tested on: NCI-H460 lung
SF-295 CNS = tested on: SF-295 CNS
IGROV1 ovarian = tested on: IGROV1 ovarian
KM12 colon = tested on: KM12 colon
TK-10 renal = tested on: TK-10 renal
HOP-62 NSCLC = tested on: HOP-62 NSCLC
HCT-116 colon = tested on: HCT-116 colon
CCRF-CEM leukemia = tested on: CCRF-CEM leukemia
M19-MEL melanoma = tested on: M19-MEL melanoma
HL-60(TB) leukemia = tested on: HL-60(TB) leukemia
NCI-H23 lung = tested on: NCI-H23 lung
UACC-257 melanoma = tested on: UACC-257 melanoma
OVCAR-8 ovarian = tested on: OVCAR-8 ovarian
UO-31 renal = tested on: UO-31 renal
UACC-62 melanoma = tested on: UACC-62 melanoma
SW-620 colon = tested on: SW-620 colon
SNB-19 CNS = tested on: SNB-19 CNS
HOP-92 NSCLC = tested on: HOP-92 NSCLC
HCC-2998 colon = tested on: HCC-2998 colon
A549 NSCLC = tested on: A549 NSCLC
U251 CNS = tested on: U251 CNS
SF-539 CNS = tested on: SF-539 CNS
NCI-H226 lung = tested on: NCI-H226 lung
DLD-1 colon = tested on: DLD-1 colon
RPMI-8226 leukemia = tested on: RPMI-8226 leukemia
COLO 205 colon = tested on: COLO 205 colon
K-562 leukemia = tested on: K-562 leukemia
SK-MEL-5 melanoma = tested on: SK-MEL-5 melanoma
HOP-18 NSCLC = tested on: HOP-18 NSCLC
SK-OV-3 ovarian = tested on: SK-OV-3 ovarian
SK-MEL-28 melanoma = tested on: SK-MEL-28 melanoma
SF-268 CNS = tested on: SF-268 CNS
SR leukemia = tested on: SR leukemia
DMS 273 small cell lung = tested on: DMS 273 small cell lung
SN12C renal = tested on: SN12C renal
786-0 renal = tested on: 786-0 renal
CAKI-1 renal = tested on: CAKI-1 renal
HCT-15 colon = tested on: HCT-15 colon
A498 renal = tested on: A498 renal
SK-MEL-2 melanoma = tested on: SK-MEL-2 melanoma
KM20L2 colon = tested on: KM20L2 colon
EKVX NSCLC = tested on: EKVX NSCLC
SNB-78 CNS = tested on: SNB-78 CNS
DMS 114 small cell lung = tested on: DMS 114 small cell lung
MALME-3M melanoma = tested on: MALME-3M melanoma
RXF 393 renal = tested on: RXF 393 renal
LOX IMVI melanoma = tested on: LOX IMVI melanoma
OVCAR-5 ovarian = tested on: OVCAR-5 ovarian

Measured: TGI

Nc1c(C(=O)N/N=C/c2ccccc2)sc(=S)n1-c1ccccc1
not listed: DMS 273 small cell lung | SN12C renal | 786-0 renal | CAKI-1 renal | HCT-15 colon | A498 renal | SK-MEL-2 melanoma | KM20L2 colon | EKVX NSCLC | SNB-78 CNS | DMS 114 small cell lung | MALME-3M melanoma | RXF 393 renal | LOX IMVI melanoma | OVCAR-5 ovarian
> 100 µM: all other assays above

c1ccc2c(OCCSCCCCCCCCCCSCCOc3cccc4ccccc34)cccc2c1
not listed: LXFL 529 NSCLC | HCT-116 colon | SR leukemia
> 100 µM: all other assays above
